The values below come from patent publication US20240199587A1, “HETEROCYCLIC COMPOUNDS” (Hoffmann-La Roche Inc., priority 2021, published 2024).

A word on the IC50: it is the concentration that inhibits the measured activity by half. A higher IC50 goes with weaker potency in that assay.

The experiment has as its target T1, MAGL (Homo sapiens, UniProt Q99685).
T1 sequence (Q99685 1-303): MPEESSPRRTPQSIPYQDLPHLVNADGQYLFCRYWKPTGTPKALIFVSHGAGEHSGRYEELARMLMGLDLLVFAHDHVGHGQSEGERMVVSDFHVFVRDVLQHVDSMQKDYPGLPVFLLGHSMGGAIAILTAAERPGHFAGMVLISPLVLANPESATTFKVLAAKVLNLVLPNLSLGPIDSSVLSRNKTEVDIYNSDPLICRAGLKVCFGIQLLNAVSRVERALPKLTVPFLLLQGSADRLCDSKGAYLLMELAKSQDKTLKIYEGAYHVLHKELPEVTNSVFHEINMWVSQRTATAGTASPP
Put plainly: 2-AG assay (MAGL inhibitory activity, hydrolysis of 2-arachidonoylglycerol to arachidonic acid followed by mass spectrometry). Type of experiment: biochemical. The note with it: 8 μM 2-arachidonoylglycerol, 15 min pre-incubation, 30 min incubation at RT, RapidFire MS readout. In a few lines:
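Arachidonic acid released from 8 μM 2-arachidonoylglycerol was quantified by online SPE triple-quadrupole MS (negative ESI, 303.1→259.1), normalised to d8-arachidonic acid internal standard. Reaction ran 30 min at RT after 15 min RT compound pre-incubation with […] MAGL in TRIS/EDTA/Tween-20 buffer, 2.5% DMSO.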
`N#Cc1ccccc1S(=O)(=O)N1CC2(CN(C(=O)N3CC4(CC(n5cnc(C6CC6)n5)C4)C3)C2)C1` [Example 240] had an IC50 of 6.8 nM.

Regarding `Cc1ccc(OC2CN(C(=O)N3CC4(CC(n5cnc(C6CC6)n5)C4)C3)C2)c(F)c1` [Example 241, (6-(3-cyclopropyl-1H-1,2,4-triazol-1-yl)-2-azaspiro[3.3]heptan-2-yl)(3-(2-fluoro-4-methylphenoxy)azetidin-1-yl)methanone], the IC50 was found to be 8.7 nM. `O=C(N1CC2(CC(n3cnc(C4CC4)n3)C2)C1)N1CC2(C1)CN(S(=O)(=O)c1c(F)cc(F)cc1F)C2` [Example 242, [6-(3-cyclopropyl-1,2,4-triazol-1-yl)-2-azaspiro[3.3]heptan-2-yl]-[2-(2,4,6-trifluorophenyl)sulfonyl-2,6-diazaspiro[3.3]heptan-6-yl]methanone] had an IC50 of 8.8 nM.

Turning to `O=C(N1CC2(CC(n3cnc(C4CC4)n3)C2)C1)N1CC2(C1)CN(S(=O)(=O)c1cccnc1Cl)C2` [Example 243, [2-[(2-chloro-3-pyridyl)sulfonyl]-2,6-diazaspiro[3.3]heptan-6-yl]-[6-(3-cyclopropyl-1,2,4-triazol-1-yl)-2-azaspiro[3.3]heptan-2-yl]methanone], the IC50 stood at 8.8 nM. In the case of `O=C(N1CC2(CC(n3cnc(C4CC4)n3)C2)C1)N1CC2(C1)CN(S(=O)(=O)CC1CCCCC1)C2` [Example 244, [2-(cyclohexylmethylsulfonyl)-2,6-diazaspiro[3.3]heptan-6-yl]-[6-(3-cyclopropyl-1,2,4-triazol-1-yl)-2-azaspiro[3.3]heptan-2-yl]methanone], inhibition was half-maximal at 9 nM (IC50). This IC50 and that of the compound before are within 1.5-fold of each other. `COc1cccc(S(=O)(=O)N2CC3(CN(C(=O)N4CC5(CC(n6cnc(C7CC7)n6)C5)C4)C3)C2)c1` [Example 245, [6-(3-cyclopropyl-1,2,4-triazol-1-yl)-2-azaspiro[3.3]heptan-2-yl]-[2-(3-methoxyphenyl)sulfonyl-2,6-diazaspiro[3.3]heptan-6-yl]methanone]: the IC50 is 9.9 nM. The IC50 values of the last two compounds are within 1.5-fold of each other. For the compound `O=C(N1CC(CNS(=O)(=O)c2cccc(C(F)(F)F)c2)C1)N1CC2(CC(n3cnc(C4CC4)n3)C2)C1` [Example 246, N-[[1-[6-(3-cyclopropyl-1,2,4-triazol-1-yl)-2-azaspiro[3.3]heptane-2-carbonyl]azetidin-3-yl]methyl]-3-(trifluoromethyl)benzenesul fonamide], the IC50 turned out to be 12.2 nM.

`O=C(N1CC2(CC(n3cnc(C4CC4)n3)C2)C1)N1CC2(C1)CN(S(=O)(=O)NCC1(C(F)(F)F)CC1)C2` [Example 247, 6-[6-(3-cyclopropyl-1,2,4-triazol-1-yl)-2-azaspiro[3.3]heptane-2-carbonyl]-N-[[1-(trifluoromethyl)cyclopropyl]methyl]-2,6-diazaspiro[3.3]heptane-2-sulfonamide] gave a concentration for half-maximal inhibition (IC50) of 12.2 nM.

Compound `O=C(N1CC(Oc2ccc(C(F)(F)F)nn2)C1)N1CC2(CC(n3cnc(C4CC4)n3)C2)C1` [Example 248, [6-(3-cyclopropyl-1,2,4-triazol-1-yl)-2-azaspiro[3.3]heptan-2-yl]−[3-[6-(trifluoromethyl)pyridazin-3-yl]oxyazetidin-1-yl]methanone] came in with an IC50 of 13.4 nM. This IC50 and that of the compound before are within 1.5-fold of each other. Under `CC(Oc1cnn(C2CN(C(=O)N3CC4(CC(n5cnc(C6CC6)n5)C4)C3)C2)c1)C(F)(F)F` (centres unmarked) [Example 249, [6-(3-cyclopropyl-1,2,4-triazol-1-yl)-2-azaspiro[3.3]heptan-2-yl]-[3-[4-(2,2,2-trifluoro-1-methyl-ethoxy)pyrazol-1-yl]azetidin-1-yl]methanone] stands 14.4 nM; under `O=C(N1CC2(CC(n3cnc(C4CC4)n3)C2)C1)N1CC2(C1)CN(S(=O)(=O)c1cccc3nonc13)C2` [Example 250, [2-(2,1,3-benzoxadiazol-4-ylsulfonyl)-2,6-diazaspiro[3.3]heptan-6-yl]-[6-(3-cyclopropyl-1,2,4-triazol-1-yl)-2-azaspiro[3.3]heptan-2-yl]methanone], 15.1 nM; under `COc1ccccc1S(=O)(=O)N1CC2(CN(C(=O)N3CC4(CC(n5cnc(C6CC6)n5)C4)C3)C2)C1` [Example 251, [6-(3-cyclopropyl-1,2,4-triazol-1-yl)-2-azaspiro[3.3]heptan-2-yl]-[2-(2-methoxyphenyl)sulfonyl-2,6-diazaspiro[3.3]heptan-6-yl]methanone], 15.5 nM. In turn, `O=C(N1CC(c2ccc(C3(c4nnn[nH]4)CC3)cc2)C1)N1CC2(CC(n3cnc(C4CC4)n3)C2)C1` [Example 252, [6-(3-cyclopropyl-1,2,4-triazol-1-yl)-2-azaspiro[3.3]heptan-2-yl]-[3-[4-[1-(1H-tetrazol-5-yl)cyclopropyl]phenyl]azetidin-1-yl]methanone] showed an IC50 of 16.1 nM. This IC50 and that of the compound before are within 1.5-fold of each other.

As to `O=C(N1CCC(CNS(=O)(=O)c2ccc(C(F)(F)F)cc2)CC1)N1CC2(CC(n3cnc(C4CC4)n3)C2)C1` [Example 253], half-maximal inhibition (IC50) was put at 16.2 nM. Under `O=C(N1CC(Oc2cnc(Cl)c(C3CC3)c2)C1)N1CC2(CC(n3cnc(C4CC4)n3)C2)C1` [Example 254, [3-[(6-chloro-5-cyclopropyl-3-pyridyl)oxy]azetidin-1-yl]-[6-(3-cyclopropyl-1,2,4-triazol-1-yl)-2-azaspiro[3.3]heptan-2-yl]methanone] stands 17 nM; under `O=C(N1CC2(CC(n3cnc(C4CC4)n3)C2)C1)N1CC2(C1)CN(S(=O)(=O)c1ccc(C(F)(F)F)nc1)C2` [Example 255, [6-(3-cyclopropyl-1,2,4-triazol-1-yl)-2-azaspiro[3.3]heptan-2-yl]-[2-[[6-(trifluoromethyl)-3-pyridyl]sulfonyl]-2,6-diazaspiro[3.3]heptan-6-yl]methanone], 17.2 nM. With `O=C(N1CC2(CC(n3cnc(C4CC4)n3)C2)C1)N1CC2(C1)CN(S(=O)(=O)NCc1ccc(F)cc1)C2` [Example 256, 6-[6-(3-cyclopropyl-1,2,4-triazol-1-yl)-2-azaspiro[3.3]heptane-2-carbonyl]-N-[(4-fluorophenyl)methyl]-2,6-diazaspiro[3.3]heptane-2-sulfonamide], the IC50 was found to be 17.3 nM. As for `NS(=O)(=O)c1ccccc1CN1CC2(C1)CN(C(=O)N1CC3(CC(n4cnc(C5CC5)n4)C3)C1)C2` [Example 257, 2-[[2-[6-(3-cyclopropyl-1,2,4-triazol-1-yl)-2-azaspiro[3.3]heptane-2-carbonyl]-2,6-diazaspiro[3.3]heptan-6-yl]methyl] benzenesulfonamide], 18 nM corresponded to half-maximal inhibition (IC50). In turn, `O=C(N1CC2(CC(n3cnc(C4CC4)n3)C2)C1)N1CC2(CN(Cc3ncc(F)cc3F)C2)C1` [Example 258, [6-(3-cyclopropyl-1,2,4-triazol-1-yl)-2-azaspiro[3.3]heptan-2-yl]-[6-[(3,5-difluoro-2-pyridyl)methyl]-2,6-diazaspiro[3.3]heptan-2-yl]methanone] yielded a half-inhibitory concentration (IC50) of 19.4 nM. Under `O=C(N1CCC(CNS(=O)(=O)c2ccc(OC(F)(F)F)cc2)CC1)N1CC2(CC(n3cnc(C4CC4)n3)C2)C1` [Example 259, N-[[1-[6-(3-cyclopropyl-1,2,4-triazol-1-yl)-2-azaspiro[3.3]heptane-2-carbonyl]-4-piperidyl]methyl]-4-(trifluoromethoxy) benzenesulfonamide] stands 21.8 nM; under `O=C(N1CC2(CC(n3cnc(C4CC4)n3)C2)C1)N1CC2(C1)CN(S(=O)(=O)NC1(C(F)(F)F)CC1)C2` [Example 260, 6-[6-(3-cyclopropyl-1,2,4-triazol-1-yl)-2-azaspiro[3.3]heptane-2-carbonyl]-N-[1-(trifluoromethyl)cyclopropyl]-2,6-diazaspiro[3.3]heptane-2-sulfonamide], 23.1 nM. With `O=C(N1CC(c2ccn(CC(F)(F)F)c(=O)c2)C1)N1CC2(CC(n3cnc(C4CC4)n3)C2)C1` [Example 261, 4-[1-[6-(3-cyclopropyl-1,2,4-triazol-1-yl)-2-azaspiro[3.3]heptane-2-carbonyl]azetidin-3-yl]-1-(2,2,2-trifluoroethyl)pyridin-2-one], half-maximal inhibition (IC50) was put at 24.2 nM. The compound `O=C(N1CC(NCc2ccc(C(F)(F)F)cc2F)C1)N1CC2(CC(n3cnc(C4CC4)n3)C2)C1` [Example 262, [6-(3-cyclopropyl-1,2,4-triazol-1-yl)-2-azaspiro[3.3]heptan-2-yl]-[3-[[2-fluoro-4-(trifluoromethyl)phenyl]methylamino]azetidin-1-yl]methanone] gave an IC50 of 25.2 nM. Turning to `O=C(N1CC2(CC(n3cnc(C4CC4)n3)C2)C1)N1CC2(C1)CN(S(=O)(=O)c1cnccc1C(F)(F)F)C2` [Example 263, [6-(3-cyclopropyl-1,2,4-triazol-1-yl)-2-azaspiro[3.3]heptan-2-yl]-[2-[[4-(trifluoromethyl)-3-pyridyl]sulfonyl]-2,6-diazaspiro[3.3]heptan-6-yl]methanone], the IC50 is 27.2 nM. `COC(=O)c1ccccc1S(=O)(=O)N1CC2(CN(C(=O)N3CC4(CC(n5cnc(C6CC6)n5)C4)C3)C2)C1` [Example 264, methyl 2-[[6-[6-(3-cyclopropyl-1,2,4-triazol-1-yl)-2-azaspiro[3.3]heptane-2-carbonyl]-2,6-diazaspiro[3.3]heptan-2-yl]sulfonyl]benzoate] showed an IC50 of 27.2 nM.

Turning to `O=C(N1CC2(CC(n3cnc(C4CC4)n3)C2)C1)N1CC2(C1)CN(S(=O)(=O)Cc1ccccc1)C2` [Example 265, (2-benzylsulfonyl-2,6-diazaspiro[3.3]heptan-6-yl)-[6-(3-cyclopropyl-1,2,4-triazol-1-yl)-2-azaspiro[3.3]heptan-2-yl]methanone], the midpoint of inhibition, the IC50, lay at 27.5 nM. This IC50 and that of the compound before are within 1.5-fold of each other.
